We go through 20 compounds from patent publication US5965718A, “Analogs of sarcodictyin and eleutherobin” (priority 1998, dated 1999).

Each structure is given as a SMILES string. “Also recorded” adds a separate entry of the source.

For data set [1], the system named is tubulin; ovarian cancer cells (1A9, 1A9PTX10, 1A9PTX22). To be noted: in words; for biological activity (tubulin polymerization and/or cytotoxicity), SAR statement: compared with natural products 7 and 8; for biological activity on modification of the alcohol component of the ester group: compared with the methyl ester (compound 600). Here is the method: (§1) FIG. 21 tabulates cytotoxicity data of sarcodictyins with the following tubulin polymerization and cytotoxicity properties of sarcodictyins: (a) The tubulin polymerization measurements were performed at 37° C. except for adjustments in drug concentration ([…]) and incubation time (90 min). (b) The cytotoxicity experiments were carried out as previously described (Giannakakou et al. J. Biol. Chem. 1995, 272, 17118-17125; Nicolaou et al. Angew. Chem. Int. Ed. Engl. 1997, 36, 2097-2103).
(§2) The synthesized sarcodictyin library (shown in FIG. 20) was screened for induction of tubulin polymerization using the filtration calorimetric assay and […] at 37° C. (results are listed in FIG. 20; Bollag et al. Cancer Res. 1995, 55, 2325-2333). These investigations were then followed by cytotoxicity studies with ovarian cancer cells (1A9) including two taxol-resistant lines (1A9PTX10 and 1A9PTX22; Giannakakou et al. J. Biol. Chem. 1995, 272, 17118-17125). The data reveal a number of important structure activity relationships (SARs).

For data set [2], the system named is ovarian cancer cells (1A9). The data set is classed as cell-based. To be noted: 1A9 and taxol-resistant lines; in words, compared with natural substances 7 and 8; figures only in FIG. 21. Here is the method:
as §1, §2

Another data set has as its system tubulin. Briefly: induction of tubulin polymerization, filtration calorimetric assay. The data set is classed as biochemical. To be noted: 100 m compound at 37° C.; in words, compared with sarcodictyins A (7) and B (8); figures only in FIG. 20. The procedure: as §1, §2
For data set [3], the system named is taxol-resistant lines (1A9PTX10 and 1A9PTX22). Briefly: cytotoxicity against taxol-resistant tumor cell lines. The class given is cell-based. The conditions noted are these: in words. Here is the method:
as §1, §2

Consider `COC(=O)/C1=C/[C@@H]2[C@@H](C(C)C)CC=C(C)[C@@H]2C[C@H](OC(=O)/C=C/c2ccccn2)[C@]2(C)C=C[C@@]1(OC)O2` [Compound 480], for which, in data set [1], the “biological activity (tubulin polymerization and/or cytotoxicity), SAR statement” value (“biological activity … SAR statement” below) is listed as “considerable loss of activity”. In the case of `COC(=O)/C1=C/[C@@H]2[C@@H](C(C)C)CC=C(C)[C@@H]2C[C@H](OC(=O)/C=C/c2csc(C)n2)[C@]2(C)C=C[C@@]1(OC)O2` [Compound 490], in data set [1], the “biological activity … SAR statement” value is listed as “considerable loss of activity”. Same read-out and setting: to `CCOC(=O)/C1=C/[C@@H]2[C@@H](C(C)C)CC=C(C)[C@@H]2C[C@H](OC(=O)/C=C/c2coc(C)n2)[C@]2(C)C=C[C@@]1(OC)O2` [Compound 500] belongs “considerable loss of activity”.

As to `COC(=O)C1=CC2C(CC(OC(=O)/C=C/c3cn(C)cn3)C3(C)C=CC1(OC)O3)C(C)=CCC2C(C)C` (stereo not drawn) [Compound 600], the cytotoxicity potency result in data set [2] was “potencies comparable or higher that those of the natural substances”. Also, the “tubulin polymerization properties / potencies” value with tubulin is “superior tubulin polymerization properties to those of either sarcodictyins A (7) or B (8)”. Further, the “cytotoxicity / biological activity against the taxol-resistant cell lines” value (from here on “cytotoxicity / biological activity”) in data set [3] is listed as “Particularly striking; also recorded: enhanced biological activity”. For the same compound, the “biological activity … SAR statement” value in data set [1] is “equal or superior biological activities”.

Regarding `CCOC(=O)C1=CC2C(CC(OC(=O)/C=C/c3cn(C)cn3)C3(C)C=CC1(OC)O3)C(C)=CCC2C(C)C` (stereo not drawn) [Compound 610], in data set [2], the cytotoxicity potency entry is listed as “potencies comparable or higher that those of the natural substances”. The “tubulin polymerization properties / potencies” value in the data set on tubulin is “not always in line with their cytotoxicity effects”. The “cytotoxicity / biological activity” value in data set [3] was “Particularly striking; also recorded: enhanced biological activity”. In addition, in data set [1], the “biological activity … SAR statement” value is “equal or superior biological activities” and the “biological activity on modification of the alcohol component of the ester group” value (“biological activity on modification” for short) is recorded as “enhancement of the biological activity”.

On to `CO[C@]12C=C[C@](C)(O1)[C@@H](OC(=O)/C=C/c1cn(C)cn1)C[C@H]1C(C)=CC[C@H](C(C)C)[C@H]1/C=C\2C(=O)OCCCl` [Compound 630], for which, in data set [2], the cytotoxicity potency result is “potencies comparable or higher that those of the natural substances”. Also, in data set [1], the “biological activity … SAR statement” value was “equal or superior biological activities” and the “biological activity on modification” value was “reversal of the trend”. Turning to `CO[C@]12C=C[C@](C)(O1)[C@@H](OC(=O)/C=C/c1cn(C)cn1)C[C@H]1C(C)=CC[C@H](C(C)C)[C@H]1/C=C\2C(=O)OCCCCc1ccccc1` [Compound 660], in data set [2], the cytotoxicity potency result was “cytotoxicity comparable to, or better than, the natural products”. Besides, in the data set with tubulin, the “tubulin polymerization properties / potencies” value is given as “modest”. `CCCCOC(=O)/C1=C/[C@@H]2[C@@H](C(C)C)CC=C(C)[C@@H]2C[C@H](OC(=O)/C=C/c2cn(C)cn2)[C@]2(C)C=C[C@@]1(OC)O2` [Compound 670]: the “cytotoxicity / biological activity” value in data set [3] is given as “Particularly striking”. In the case of `CCCOC(=O)/C1=C/[C@@H]2[C@@H](C(C)C)CC=C(C)[C@@H]2C[C@H](OC(=O)/C=C/c2cn(C)cn2)[C@]2(C)C=C[C@@]1(OC)O2` [Compound 680], the “cytotoxicity / biological activity” value in data set [3] is listed as “Particularly striking”. Further, the “biological activity on modification” value in data set [1] is recorded as “enhancement of the biological activity”.

In the case of `CO[C@]12C=C[C@](C)(O1)[C@@H](OC(=O)/C=C/c1cn(C)cn1)C[C@H]1C(C)=CC[C@H](C(C)C)[C@H]1/C=C\2C(=O)OCCOCc1ccccc1` [Compound 690], in data set [2], the cytotoxicity potency result is reported as “cytotoxicity comparable to, or better than, the natural products”. In addition, the “tubulin polymerization properties / potencies” value in the data set with tubulin is given as “modest”. Turning to `C=CCOC(=O)/C1=C/[C@@H]2[C@@H](C(C)C)CC=C(C)[C@@H]2C[C@H](OC(=O)/C=C/c2cn(C)cn2)[C@]2(C)C=C[C@@]1(OC)O2` [Compound 700], the “tubulin polymerization properties / potencies” value in the data set with tubulin is on record as “not always in line with their cytotoxicity effects”. In data set [1], the “biological activity on modification” value is reported as “enhancement of the biological activity”. As to `CO[C@]12C=C[C@](C)(O1)[C@@H](OC(=O)/C=C/c1cn(C)cn1)C[C@H]1C(C)=CC[C@H](C(C)C)[C@H]1/C=C\2C(=O)OCCC(C)C` [Compound 710], the “biological activity on modification” value in data set [1] was “reversal of the trend”. As to `COC(OC)/C1=C/[C@@H]2[C@@H](C(C)C)CC=C(C)[C@@H]2C[C@H](OC(=O)/C=C/c2cn(C)cn2)[C@]2(C)C=C[C@@]1(OC)O2` [Compound 730], in data set [2], the cytotoxicity potency result is recorded as “potencies comparable or higher that those of the natural substances”. Moreover, the “cytotoxicity / biological activity” value in data set [3] is on record as “Particularly striking”. Turning to `CCCOC(=O)/C1=C/[C@@H]2[C@@H](C(C)C)CC=C(C)[C@@H]2C[C@H](OC(=O)/C=C/c2cn(C)cn2)[C@]2(C)C=C[C@@]1(OCC(F)(F)F)O2` [Compound 840], the cytotoxicity potency result in data set [2] is recorded as “overall decrease of cytotoxicity”.

Consider `CCO[C@]12C=C[C@](C)(O1)[C@@H](OC(=O)/C=C/c1cn(C)cn1)C[C@H]1C(C)=CC[C@H](C(C)C)[C@H]1/C=C\2C(=O)OC` [Compound 850], for which the cytotoxicity potency entry in data set [2] is “potencies comparable or higher that those of the natural substances”. Also, the “tubulin polymerization properties / potencies” value with tubulin was “superior tubulin polymerization properties to those of either sarcodictyins A (7) or B (8)”. Besides, the “cytotoxicity / biological activity” value in data set [3] is given as “Particularly striking”. Further, in data set [1], the “biological activity … SAR statement” value is “equal or superior biological activities”. For the compound `CO[C@]12C=C[C@](C)(O1)[C@@H](OC(=O)/C=C/c1cn(C)cn1)C[C@H]1C(C)=CC[C@H](C(C)C)[C@H]1/C=C\2C(=O)OCc1c2ccccc2cc2ccccc12` [Compound 920], the “tubulin polymerization properties / potencies” value in the data set with tubulin is recorded as “modest”. For the same compound, the “cytotoxicity / biological activity” value in data set [3] is listed as “Particularly striking”. In addition, the “biological activity … SAR statement” value in data set [1] is recorded as “equal or superior biological activities”.

For the compound `COC(=O)/C1=C/[C@@H]2[C@@H](C(C)C)CC=C(C)[C@@H]2C[C@H](OC(=O)/C=C/c2ccccc2)[C@]2(C)C=C[C@@]1(OC)O2` [Compound 990], in data set [1], the “biological activity … SAR statement” value is listed as “only negligible biological activity”. The same measure, in the same setting: to `COC(=O)/C1=C/[C@@H]2[C@@H](C(C)C)CC=C(C)[C@@H]2C[C@H](OC(=O)Nc2ccccc2)[C@]2(C)C=C[C@@]1(OC)O2` [Compound 1010] belongs “complete loss of activity”. Same read-out and setting: the result for `COC(=O)/C1=C/[C@@H]2[C@@H](C(C)C)CC=C(C)[C@@H]2C[C@H](OC(C)=O)[C@]2(C)C=C[C@@]1(OC)O2` [Compound 1070] reads “complete loss of activity”; that for `CO[C@]12C=C[C@](C)(O1)[C@@H](OC(=O)/C=C/c1cn(C)cn1)C[C@H]1C(C)=CC[C@H](C(C)C)[C@H]1/C=C\2CO[C@@H]1OC[C@@H](O)[C@@H](O)[C@@H]1OC(C)=O` [eleutherobin], “potent biological actions”.
